Data from patent US20250215029A1 (Recludix Pharma, Inc., priority 2022, published 2025).

target: T1, pY641-STAT6 in PBMC (Homo sapiens, UniProt P42226); experiment: MSD-pSTAT-PBMC Assay (pSTAT6, IL-4 stimulated); assay type: cell-based; settings: PBMC, compound 3 hrs, then 1 ng/mL IL-4 for 10 min; Table 115; read-out: STAT6
T1 construct: Cryopreserved Peripheral Blood Mononuclear Cells (PBMC) are from AllCells; host or cells: cryopreserved PBMC
T1 sequence (P42226 1-847): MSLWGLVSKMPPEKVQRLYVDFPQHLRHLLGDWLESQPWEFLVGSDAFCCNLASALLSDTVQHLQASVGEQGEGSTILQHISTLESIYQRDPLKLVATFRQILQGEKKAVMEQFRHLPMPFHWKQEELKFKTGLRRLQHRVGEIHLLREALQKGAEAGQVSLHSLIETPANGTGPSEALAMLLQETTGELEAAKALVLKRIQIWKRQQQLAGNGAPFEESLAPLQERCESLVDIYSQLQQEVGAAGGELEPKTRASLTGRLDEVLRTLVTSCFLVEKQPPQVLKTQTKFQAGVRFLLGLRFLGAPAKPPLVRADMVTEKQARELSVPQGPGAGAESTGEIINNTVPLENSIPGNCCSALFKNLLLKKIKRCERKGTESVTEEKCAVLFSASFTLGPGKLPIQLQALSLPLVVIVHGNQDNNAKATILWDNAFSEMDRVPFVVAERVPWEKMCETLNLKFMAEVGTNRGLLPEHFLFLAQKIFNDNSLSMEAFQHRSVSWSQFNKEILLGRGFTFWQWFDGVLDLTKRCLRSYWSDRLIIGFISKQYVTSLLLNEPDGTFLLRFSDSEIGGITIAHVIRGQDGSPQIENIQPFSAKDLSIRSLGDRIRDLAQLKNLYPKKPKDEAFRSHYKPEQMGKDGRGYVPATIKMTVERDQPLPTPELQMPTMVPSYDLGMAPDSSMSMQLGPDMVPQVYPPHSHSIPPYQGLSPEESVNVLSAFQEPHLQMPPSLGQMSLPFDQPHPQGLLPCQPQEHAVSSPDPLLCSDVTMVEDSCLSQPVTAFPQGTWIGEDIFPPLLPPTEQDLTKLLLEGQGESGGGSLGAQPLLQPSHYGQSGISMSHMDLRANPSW
Excerpt: Cryopreserved Peripheral Blood Mononuclear Cells (PBMC) are from AllCells. Recombinant Human IL-4 and IL-6 are from Peprotech. Mouse monoclonal anti-STAT3 antibody, rabbit monoclonal anti-pY705-STAT3 antibody, rabbit monoclonal Anti-pY641-STAT6 antibody, and lysis buffer are from Cell Signaling Technology (CST). Mouse monoclonal anti-STAT6 antibody is from BioLegend. Assay plates, blocker, and anti-rabbit secondary antibody are from Meso Scale Discovery (MSD).
Cyropreserved PBMCs were thawed out and allowed to recover overnight in IMDM+10% heat-inactivated FBS prior to plating 50,000 (STAT3) or 25,000 (STAT6) cells per well in 96-well U-bottom tissue culture plates. Cells were treated with compound for 3 hrs, then stimulated with 10 ng/mL IL-6 (STAT3) or 1 ng/mL IL-4 (STAT6) for 10 min. Cells were then spun down and washed with ice-cold PBS prior to lysing the cell pellet with 1× lysis buffer (CST) with 1× HALT protease and phosphatase inhibitor cocktail (Thermo). Lysates were transferred to and incubated overnight at 4° C. with shaking in QuickPlex 96-well high bind assay plates (MSD) pre-coated overnight with 30 μL per well of 0.6 μg/mL mouse monoclonal anti-STAT3 antibody (STAT3) or 2 μg/mL mouse monoclonal anti-STAT6 antibody (STAT6) in 1× PBS, and pre-blocked for 1 hour with 3% Blocker-A (MSD). Captured protein in the assay plates were then washed and probed with 25 μL per well of […] rabbit monoclonal anti-pY705-STAT3 antibody (STAT3) or 0.18 μg/ml rabbit monoclonal Anti-pY641-STAT6 antibody (STAT6) in 1% Blocker-A for 1 hour at room temperature with shaking, then washed and probed with 25 ul per well of 1 ug/ml Sulfo-TAG Labeled Goat Anti-Rabbit Antibody (MSD) in 1% Blocker-A for 1 hour at room temperature with shaking. Assay plates were then washed and 150 μL of 1× Read Buffer-T (MSD) was added to each well prior to reading on an SQ120 MSD Plate Reader. Assay signal from each sample was subtracted by the signal from unstimulated control wells and normalized to DMSO control wells. IC50 values were calculated using Graph Pad Prism Dose-Response Nonlinear Regression with variable slope. For both pSTAT3 and pSTAT6 A=≤100 nM; B 100-1000 nM; C=>1000-3000 nM; D=>3 μM; and NT=Not Tested.

Structure (SMILES) | IC50 [nM]
CCCOC(=O)[C@H](C)NP(=O)(Oc1ccccc1)[C@@H](F)c1ccc2sc(C(=O)N[C@H]3CCCC[C@H]4CC[C@@H](C(=O)N5C[C@H](c6cccc(Cl)c6)[C@@H](C#N)C56CC6)N4C3=O)cc2c1 (some centres unmarked) [Compound 345] | < 100
CC(C)(C)C(=O)SCCOP(=O)(OCCSC(=O)C(C)(C)C)C(F)(F)c1ccc2sc(C(=O)N[C@H]3CCC[C@H]4CC[C@@H](C(=O)N5C[C@H](c6ccccc6)[C@@H](C#N)C56CC6)N4C3=O)cc2c1 (single isomer, unassigned) [Compound 1081] | < 100

same assay, conditions: STAT6, PBMC, compound 3 hrs, then 1 ng/mL IL-4 for 10 min; Table 115

Structure (SMILES) | IC50 [nM]
COCCOC(=O)[C@H](C)NP(=O)(Oc1ccccc1)[C@@H](F)c1ccc2sc(C(=O)N[C@H]3CCC[C@H]4CC[C@@H](C(=O)N5C[C@@H](c6ccccc6)[C@H](C#N)C56CC6)N4C3=O)cc2c1 (stereo partly drawn) [Compound 361, 2-methoxyethyl (((R)-(2-(((3S,6S,9aS)-3-((6R,7S)-7-cyano-6-phenyl-4-azaspiro[2.4]heptane-4-carbonyl)-5-oxooctahydro-1H-pyrrolo[1,2-a]azepin-6-yl)carbamoyl)benzo [b]thiophen-5-yl)fluoromethyl) (phenoxy)phosphoryl)-L-alaninate] | < 100
CCCOC(=O)[C@H](C)NP(=O)(Oc1ccccc1)C(F)c1ccc2sc(C(=O)N[C@H]3CCCC[C@H]4CC[C@@H](C(=O)N5C(=O)N(c6cccnc6)C(=O)C56CCC6)N4C3=O)cc2c1 (stereo partly drawn) [Compound 992, propyl (((2-(((3S,6S,10aS)-3-(6,8-dioxo-7-(pyridin-3-yl)-5,7-diazaspiro[3.4]octane-5-carbonyl)-5-oxodecahydropyrrolo [1,2-a]azocin-6-yl)carbamoyl)benzo [b]thiophen-5-yl)fluoromethyl) (phenoxy)phosphoryl)-L-alaninate] | 100 to 1000
CCCOC(=O)[C@H](C)NP(=O)(Oc1ccccc1)[C@@H](F)c1ccc2sc(C(=O)N[C@H]3CCCC[C@H]4CC[C@@H](C(=O)N5C[C@H](c6cccc(OC(F)F)c6)C(C#N)C56CC6)N4C3=O)cc2c1 (relative stereo) [Compound 338, propyl (((R)-(2-(((3S,6S,10aS)-3-((rel-trans)-7-cyano-6-(3-(difluoromethoxy)phenyl)-4-azaspiro[2.4]heptane-4-carbonyl)-5-oxodecahydropyrrolo [1,2-a]azocin-6-yl)carbamoyl)benzo [b]thiophen-5-yl)fluoromethyl) (phenoxy)phosphoryl)-L-alaninate] | < 100
CCCOC(=O)[C@@H]1CCCN1P(=O)(Oc1ccccc1)[C@H](F)c1ccc2sc(C(=O)N[C@H]3CCC[C@H]4CC[C@@H](C(=O)N5C[C@H](c6ccccc6)[C@@H](C#N)C56CC6)N4C3=O)cc2c1 (stereo partly drawn) [Compound 487, propyl (((S)-(2-(((3S,6S,9aS)-3-((6S,7R)-7-cyano-6-phenyl-4-azaspiro[2.4]heptane-4-carbonyl)-5-oxooctahydro-1H-pyrrolo[1,2-a]azepin-6-yl)carbamoyl)benzo [b]thiophen-5-yl)fluoromethyl) (phenoxy)phosphoryl)-L-prolinate] | 1000 to 3000
COCCOC(=O)[C@H](C)NP(=O)(Oc1ccccc1)[C@H](F)c1ccc2sc(C(=O)N[C@H]3CCC[C@H]4CC[C@@H](C(=O)N5C[C@H](c6ccccc6)[C@@H](C#N)C56CC6)N4C3=O)cc2c1 (stereo partly drawn) [Compound 351, 2-methoxyethyl (((S)-(2-(((3S,6S,9aS)-3-((6S,7R)-7-cyano-6-phenyl-4-azaspiro[2.4]heptane-4-carbonyl)-5-oxooctahydro-1H-pyrrolo[1,2-a]azepin-6-yl)carbamoyl)benzo [b]thiophen-5-yl)fluoromethyl) (phenoxy)phosphoryl)-L-alaninate] | < 100
CCCOC(=O)[C@H](C)NP(=O)(Oc1ccccc1)[C@@H](F)c1ccc2sc(C(=O)N[C@H]3CCC[C@H]4CC[C@@H](C(=O)N5C[C@H](c6ccc(C)cc6)[C@@H](C#N)C56CC6)N4C3=O)cc2c1 (single isomer, unassigned) [Compound 478] | < 100
CCCOC(=O)[C@H](C)NP(=O)(Oc1ccccc1)C(F)c1ccc2sc(C(=O)N[C@H]3CCCC[C@H]4CC[C@@H](C(=O)N5C(=O)N(c6cncc(F)c6)C(=O)C56CC6)N4C3=O)cc2c1 (stereo partly drawn) [Compound 473, propyl ((fluoro(2-(((3S,6S,10aS)-3-(6-(5-fluoropyridin-3-yl)-5,7-dioxo-4,6-diazaspiro[2.4]heptane-4-carbonyl)-5-oxodecahydropyrrolo [1,2-a]azocin-6-yl)carbamoyl)benzo [b]thiophen-5-yl)methyl)(phenoxy)phosphoryl)-L-alaninate] | > 3000
CCCOC(=O)[C@H](C)NP(=O)(Oc1ccccc1)C(F)c1ccc2ccc(C(=O)N[C@H]3CCCC[C@H]4CC[C@@H](C(=O)N5CC(c6ccccc6)CC56CC6)N4C3=O)cc2c1 (stereo partly drawn) [Compound 411, propyl ((fluoro(7-(((3S,6S,10aS)-5-oxo-3-(6-phenyl-4-azaspiro[2.4]heptane-4-carbonyl)decahydropyrrolo[1,2-a]azocin-6-yl)carbamoyl)naphthalen-2-yl)methyl)(phenoxy)phosphoryl)-L-alaninate] | < 100
CCCOC(=O)[C@H](C)NP(=O)(Oc1ccccc1)[C@H](F)c1ccc2sc(C(=O)N[C@H]3CCCC[C@H]4CC[C@@H](C(=O)N5C[C@@H](C#N)[C@H](c6ccccc6)C5)N4C3=O)cc2c1 (single isomer, unassigned) [Compound 321] | < 100
CCCOC(=O)[C@H](C)NP(=O)(Oc1ccccc1)C(F)c1ccc2ccc(C(=O)N[C@H]3CCCC[C@H]4CC[C@@H](C(=O)N5C[C@H](c6ccn(C)c(=O)c6)CC56CC6)N4C3=O)cc2c1 (stereo partly drawn) [Compound 443, propyl ((fluoro(7-(((3S,6S,10aS)-3-((S)-6-(1-methyl-2-oxo-1,2-dihydropyridin-4-yl)-4-azaspiro[2.4]heptane-4-carbonyl)-5-oxodecahydropyrrolo [1,2-a]azocin-6-yl)carbamoyl)naphthalen-2-yl)methyl)(phenoxy)phosphoryl)-L-alaninate] | 100 to 1000
CCCOC(=O)[C@H](C)NP(=O)(Oc1ccccc1)[C@@H](F)c1ccc2sc(C(=O)N[C@H]3CCCC[C@H]4CC[C@@H](C(=O)N5C[C@H](c6cncc(OC)c6)[C@@H](C#N)C56CC6)N4C3=O)cc2c1 (single isomer, unassigned) [Compound 372] | > 3000
CCCOC(=O)[C@H](C)NP(=O)(Oc1ccccc1)C(F)c1ccc2sc(C(=O)N[C@H]3CCCC[C@H]4CC[C@@H](C(=O)N5C(=O)N(c6cc(=O)n(C)cc6F)C(=O)C56CC6)N4C3=O)cc2c1 (stereo partly drawn) [Compound 976, propyl ((fluoro(2-(((3S,6S,10aS)-3-(6-(5-fluoro-1-methyl-2-oxo-1,2-dihydropyridin-4-yl)-5,7-dioxo-4,6-diazaspiro [2.4]heptane-4-carbonyl)-5-oxodecahydropyrrolo [1,2-a]azocin-6-yl)carbamoyl)benzo [b]thiophen-5-yl)methyl)(phenoxy)phosphoryl)-L-alaninate] | > 3000
